These results are taken from US9452986B2, “6-heteroaryloxy- or 6-aryloxy-quinoline-2-carboxamides and method of use” (AbbVie Inc., priority 2014, dated 2016).

In the assay the target is recombinant human Nav1.7 (Homo sapiens (Human), UniProt Q15858). Briefly: FRET-based membrane potential assay, recombinant human sodium channel Nav1.7. In kind it is cell-based. The method, then:
FRET-Based Membrane Potential Assays.
Recombinant, Human Sodium Channel, Nav1.7.
On the day of the assay, medium was removed by aspiration, and cells were washed with assay buffer [HBSS (Invitrogen, Carlsbad, Calif.) containing 20 mM HEPES (Invitrogen, Carlsbad, Calif.)]. […] Cells were incubated for 40 minutes at room temperature in the dark. […] The cells were incubated for 90 minutes at room temperature in the dark. Fluorescence readings were made using a FLIPR®^TETRA (Molecular Devices, Sunnyvale Calif.) equipped with voltage-sensor probe optics. At the start of each experiment the optimal (EC80) concentration of depolarizing agent (veratridine) was determined by testing a dilution curve of assay buffer containing veratridine (Sigma-Aldrich, St. Louis, Mo.) and 1 mg/mL scorpion venom (SVqq, from Leiurus quinquestriatus; Sigma-Aldrich, St. Louis, Mo.). […] Test compounds in the daughter plate were diluted to (˜3×) solutions in assay buffer immediately before assaying. Using the FLIPR®^TETRA, 20 μL of the (3×) compound solutions were first added to the cells, then 20 μL of depolarizing solution (3×EC80 veratridine+SVqq) were added 3 minutes later to activate the channel. […] IC50 values were calculated from curve fits of the ratio data using a four-parameter logistic Hill equation (Accelrys Assay Explorer 3.3 Client, Accelrys, San Diego, Calif.) with percent inhibition plotted against compound concentration.

Where [1] appears, read: HEK293 cells stably expressing recombinant human Nav1.7, veratridine + scorpion venom depolarization, read-out: FRET-Membrane Potential Nav1.7 IC50.
The mark [2] stands for this setting: read-out: FRET-Membrane Potential Nav1.7 IC50.

SMILES strings stand for the structures. Like-named read-outs stand apart in the source and are kept apart here.

Chain of recombinant human Nav1.7 (Q15858 whole entry): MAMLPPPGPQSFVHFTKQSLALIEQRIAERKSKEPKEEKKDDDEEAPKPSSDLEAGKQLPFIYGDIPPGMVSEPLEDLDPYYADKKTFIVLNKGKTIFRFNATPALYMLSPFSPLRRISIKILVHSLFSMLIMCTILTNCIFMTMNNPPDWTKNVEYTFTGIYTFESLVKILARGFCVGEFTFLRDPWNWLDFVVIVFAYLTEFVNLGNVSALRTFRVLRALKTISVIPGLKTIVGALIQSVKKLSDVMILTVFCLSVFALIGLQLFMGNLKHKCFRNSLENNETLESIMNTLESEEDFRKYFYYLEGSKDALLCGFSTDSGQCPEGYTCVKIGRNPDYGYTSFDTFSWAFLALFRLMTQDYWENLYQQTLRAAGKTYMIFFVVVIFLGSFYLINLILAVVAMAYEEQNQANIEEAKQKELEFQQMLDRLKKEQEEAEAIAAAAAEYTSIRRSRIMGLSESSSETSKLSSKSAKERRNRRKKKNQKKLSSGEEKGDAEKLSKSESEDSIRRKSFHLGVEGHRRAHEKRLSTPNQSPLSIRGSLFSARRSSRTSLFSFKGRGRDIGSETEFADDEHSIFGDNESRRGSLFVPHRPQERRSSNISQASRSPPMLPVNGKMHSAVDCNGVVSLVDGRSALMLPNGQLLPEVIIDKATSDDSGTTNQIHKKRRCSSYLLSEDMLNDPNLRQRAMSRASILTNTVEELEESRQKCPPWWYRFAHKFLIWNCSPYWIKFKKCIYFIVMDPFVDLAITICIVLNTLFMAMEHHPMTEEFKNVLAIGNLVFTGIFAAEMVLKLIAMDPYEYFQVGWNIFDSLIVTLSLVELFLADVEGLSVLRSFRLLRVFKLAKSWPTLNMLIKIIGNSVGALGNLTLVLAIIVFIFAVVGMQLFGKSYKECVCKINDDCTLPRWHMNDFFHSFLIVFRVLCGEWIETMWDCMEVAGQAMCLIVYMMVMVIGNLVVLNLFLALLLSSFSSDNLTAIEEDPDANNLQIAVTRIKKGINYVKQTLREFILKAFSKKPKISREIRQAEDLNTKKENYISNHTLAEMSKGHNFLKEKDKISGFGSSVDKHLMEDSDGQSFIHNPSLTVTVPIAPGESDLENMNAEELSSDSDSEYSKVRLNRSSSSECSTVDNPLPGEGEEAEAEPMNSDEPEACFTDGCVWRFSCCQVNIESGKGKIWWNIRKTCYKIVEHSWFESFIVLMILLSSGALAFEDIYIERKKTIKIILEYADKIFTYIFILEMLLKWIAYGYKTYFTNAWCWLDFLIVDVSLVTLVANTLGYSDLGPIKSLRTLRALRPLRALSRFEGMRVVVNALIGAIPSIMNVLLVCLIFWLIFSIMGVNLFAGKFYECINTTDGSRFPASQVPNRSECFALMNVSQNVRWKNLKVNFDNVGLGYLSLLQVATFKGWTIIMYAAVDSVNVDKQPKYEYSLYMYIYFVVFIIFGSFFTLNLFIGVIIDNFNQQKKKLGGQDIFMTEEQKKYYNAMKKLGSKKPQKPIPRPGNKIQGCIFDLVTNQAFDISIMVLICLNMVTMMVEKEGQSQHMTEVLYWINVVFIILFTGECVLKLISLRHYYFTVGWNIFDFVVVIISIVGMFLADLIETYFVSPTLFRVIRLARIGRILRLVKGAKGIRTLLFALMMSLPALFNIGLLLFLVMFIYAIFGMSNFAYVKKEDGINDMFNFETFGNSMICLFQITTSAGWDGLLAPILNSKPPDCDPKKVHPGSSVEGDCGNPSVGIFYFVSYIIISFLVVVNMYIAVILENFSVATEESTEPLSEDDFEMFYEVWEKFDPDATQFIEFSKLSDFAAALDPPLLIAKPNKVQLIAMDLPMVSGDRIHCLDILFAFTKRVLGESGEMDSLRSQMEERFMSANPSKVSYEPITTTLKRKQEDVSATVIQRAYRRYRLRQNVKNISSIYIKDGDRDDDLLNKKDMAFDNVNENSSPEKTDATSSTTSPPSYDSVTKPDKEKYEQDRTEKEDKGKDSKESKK

Regarding `O=C(c1ccc2cc(Oc3ncccn3)ccc2n1)N1CCNCC1` [Example 242, piperazin-1-yl[6-(pyrimidin-2-yloxy)quinolin-2-yl]methanone], under setting [1], the IC50 was above 20 µM. The same measure, in the same setting: the same measure for `O=C(NCC(=O)N1CCC[C@@H]1CO)c1ccc2cc(Oc3ccc(C(F)(F)F)cn3)ccc2n1` [Example 570, N-{2-[(2R)-2-(hydroxymethyl)pyrrolidin-1-yl]-2-oxoethyl}-6-{[5-(trifluoromethyl)pyridin-2-yl]oxy}quinoline-2-carboxamide]: 0.977 µM; for `O=C1CCC(NC(=O)c2ccc3cc(Oc4ccc(C(F)(F)F)cn4)ccc3n2)CN1` (stereo not drawn) [Example 416, N-(6-oxopiperidin-3-yl)-6-{[5-(trifluoromethyl)pyridin-2-yl]oxy}quinoline-2-carboxamide]: 0.7 µM.

On to `CN(CC(=O)NC1CC1)C(=O)c1ccc2cc(Oc3ccc(C(F)F)cn3)ccc2n1` [Example 466, N-[2-(cyclopropylamino)-2-oxoethyl]-6-{[5-(difluoromethyl)pyridin-2-yl]oxy}-N-methylquinoline-2-carboxamide], for which, under setting [1], the IC50 was found to be 9.41 µM.

For `C[C@H](O)CNC(=O)c1ccc2cc(Oc3ccc(C(F)(F)F)cn3)ccc2n1` [Example 410, N-[(2S)-2-hydroxypropyl]-6-{[5-(trifluoromethyl)pyridin-2-yl]oxy}quinoline-2-carboxamide], the IC50 under setting [2] turned out to be 0.557 µM. In the case of `O=C(NCC(=O)N1CCCCC1)c1ccc2cc(Oc3ccc(C(F)(F)F)cn3)ccc2n1` [Example 447, N-[2-oxo-2-(piperidin-1-yl)ethyl]-6-{[5-(trifluoromethyl)pyridin-2-yl]oxy}quinoline-2-carboxamide], under setting [1], the IC50 worked out at 0.69 µM.

As to `O=C(c1ccc2cc(Oc3ccc(C(F)(F)F)cn3)ccc2n1)N1CCN[C@H](CO)C1` [Example 276, [(3S)-3-(hydroxymethyl)piperazin-1-yl](6-{[5-(trifluoromethyl)pyridin-2-yl]oxy}quinolin-2-yl)methanone], the IC50 (FRET-Membrane Potential Nav1.7 IC50) is 3.1 µM.

Take `COC(=O)N1CCN(C(=O)c2ccc3cc(Oc4ccc(C(F)(F)F)cn4)ccc3n2)CC1` [Example 186, methyl 4-[(6-{[5-(trifluoromethyl)pyridin-2-yl]oxy}quinolin-2-yl)carbonyl]piperazine-1-carboxylate]: the IC50 under setting [1] was determined as 3.97 µM.

With `O=C(c1ccc2cc(Oc3ccc(C(F)(F)F)cn3)ccc2n1)N1CC[C@@H](O)C1` [Example 282, [(3R)-3-hydroxypyrrolidin-1-yl](6-{[5-(trifluoromethyl)pyridin-2-yl]oxy}quinolin-2-yl)methanone], the IC50 under setting [1] was found to be 8.52 µM.

For the molecule `O=C(Nc1ncns1)c1ccc2cc(Oc3ccccn3)ccc2n1` [Example 80, 6-(pyridin-2-yloxy)-N-(1,2,4-thiadiazol-5-yl)quinoline-2-carboxamide], the IC50 under setting [2] is above 20 µM. Consider `CN(C)C(=O)[C@@H]1CCCN1C(=O)c1ccc2cc(Oc3ccc(C(F)(F)F)cn3)ccc2n1` [Example 451, N,N-dimethyl-1-[(6-{[5-(trifluoromethyl)pyridin-2-yl]oxy}quinolin-2-yl)carbonyl]-L-prolinamide], for which, under setting [1], the IC50 worked out at 5.23 µM. The same measure, in the same setting: the figure for `O=C(c1ccc2cc(Oc3ccc(C(F)(F)F)cn3)ccc2n1)N1CC2(CCOC2)C1` [Example 532, 6-oxa-2-azaspiro[3.4]oct-2-yl(6-{[5-(trifluoromethyl)pyridin-2-yl]oxy}quinolin-2-yl)methanone] is 2.77 µM. Same read-out and setting: the same measure for `O=C(c1ccc2cc(Oc3ccc(C(F)(F)F)nc3)ccc2n1)N1CCN[C@@H](CO)C1` [Example 544, [(3R)-3-(hydroxymethyl)piperazin-1-yl](6-{[6-(trifluoromethyl)pyridin-3-yl]oxy}quinolin-2-yl)methanone]: 3.45 µM. Turning to `O=C(NCCN1CCCCC1)c1ccc2cc(Oc3ccccn3)ccc2n1` [Example 79, N-[2-(piperidin-1-yl)ethyl]-6-(pyridin-2-yloxy)quinoline-2-carboxamide], the IC50 under setting [2] was above 20 µM. As to `N#Cc1ccc(Oc2ccc3nc(C(=O)N4CCNCC4)ccc3c2)nc1` [Example 328, 6-{[2-(piperazin-1-ylcarbonyl)quinolin-6-yl]oxy}nicotinonitrile], the IC50 under setting [1] was above 20 µM. In the case of `CN(C(=O)c1ccc2cc(Oc3ccc(C(F)(F)F)cn3)ccc2n1)C1CS(=O)(=O)CC1O` (stereo not drawn) [Example 398, N-(4-hydroxy-1,1-dioxidotetrahydrothiophen-3-yl)-N-methyl-6-{[5-(trifluoromethyl)pyridin-2-yl]oxy}quinoline-2-carboxamide], the IC50 under setting [1] came to 6.11 µM.

For the molecule `O=C(NCCC(=O)N1CCCC1)c1ccc2cc(Oc3ccc(C(F)(F)F)cn3)ccc2n1` [Example 445, N-[3-oxo-3-(pyrrolidin-1-yl)propyl]-6-{[5-(trifluoromethyl)pyridin-2-yl]oxy}quinoline-2-carboxamide], under setting [1], the IC50 amounted to 0.268 µM. As to `O=C(c1ccc2cc(Oc3ccc(C(F)(F)F)cn3)ccc2n1)N1CC(Oc2ccccc2)C1` [Example 201, (3-phenoxyazetidin-1-yl)(6-{[5-(trifluoromethyl)pyridin-2-yl]oxy}quinolin-2-yl)methanone], under setting [2], the IC50 was above 20 µM. Regarding `O=C(c1ccc2cc(Oc3ccc(C(F)(F)F)cn3)ccc2n1)N1CC(c2cccnc2)C1` [Example 217, [3-(pyridin-3-yl)azetidin-1-yl](6-{[5-(trifluoromethyl)pyridin-2-yl]oxy}quinolin-2-yl)methanone], the IC50 under setting [1] was 1.04 µM. The same measure, in the same setting: the same measure for `N#Cc1ccc(Oc2ccc3nc(C(=O)NC4CCCOC4)ccc3c2)cc1` (stereo not drawn) [Example 116, 6-(4-cyanophenoxy)-N-(tetrahydro-2H-pyran-3-yl)quinoline-2-carboxamide]: 1.03 µM; for `O=C(c1ccc2cc(Oc3ccc(S(=O)(=O)C(F)(F)F)cc3)ccc2n1)N1CCNCC1` [Example 215, piperazin-1-yl(6-{4-[(trifluoromethyl)sulfonyl]phenoxy}quinolin-2-yl)methanone]: 0.81 µM. For `O=C(c1ccc2cc(Oc3ccc(C(F)(F)F)nc3)ccc2n1)N1CCC(N2CCOCC2)CC1` [Example 526, [4-(morpholin-4-yl)piperidin-1-yl](6-{[6-(trifluoromethyl)pyridin-3-yl]oxy}quinolin-2-yl)methanone], the IC50 under setting [1] was 3.09 µM. For `O=C(c1ccc2cc(Oc3ccc(C(F)(F)F)cn3)ccc2n1)N1CCC[C@H]1CO` [Example 237, [(2S)-2-(hydroxymethyl)pyrrolidin-1-yl](6-{[5-(trifluoromethyl)pyridin-2-yl]oxy}quinolin-2-yl)methanone], the IC50 under setting [2] stood at 3.07 µM. Consider `CO[C@H]1C[C@H](NC(=O)c2ccc3cc(Oc4ccc(C(F)(F)F)cn4)ccc3n2)C1` [Example 397, N-(trans-3-methoxycyclobutyl)-6-{[5-(trifluoromethyl)pyridin-2-yl]oxy}quinoline-2-carboxamide], for which the IC50 under setting [1] came to 0.896 µM. Same read-out and setting: the figure for `NC(=O)CNC(=O)c1ccc2cc(Oc3ccc(C(F)(F)F)cn3)ccc2n1` [Example 150, N-(2-amino-2-oxoethyl)-6-{[5-(trifluoromethyl)pyridin-2-yl]oxy}quinoline-2-carboxamide] is 2.28 µM. For the molecule `CN(CCS(C)(=O)=O)C(=O)c1ccc2cc(Oc3ccc(C(F)(F)F)cn3)ccc2n1` [Example 611, N-methyl-N-[2-(methylsulfonyl)ethyl]-6-{[5-(trifluoromethyl)pyridin-2-yl]oxy}quinoline-2-carboxamide], the IC50 under setting [2] came out at 4.99 µM. Same read-out and setting: the figure for `N#Cc1ccc(Oc2ccc3nc(C(=O)N[C@H]4CCS(=O)(=O)C4)ccc3c2)cc1` [Example 159, 6-(4-cyanophenoxy)-N-[(3S)-1,1-dioxidotetrahydrothiophen-3-yl]quinoline-2-carboxamide] is 0.73 µM. In the case of `O=C(NCCN1CCCCC1)c1ccc2cc(Oc3ccc(C(F)(F)F)cn3)ccc2n1` [Example 175, N-[2-(piperidin-1-yl)ethyl]-6-{[5-(trifluoromethyl)pyridin-2-yl]oxy}quinoline-2-carboxamide], the IC50 under setting [1] was 0.206 µM.

Take `CS(=O)(=O)NC1CN(C(=O)c2ccc3cc(Oc4ccc(C(F)(F)F)cn4)ccc3n2)C1` [Example 428, N-{1-[(6-{[5-(trifluoromethyl)pyridin-2-yl]oxy}quinolin-2-yl)carbonyl]azetidin-3-yl}methanesulfonamide]: the IC50 under setting [1] is 10.3 µM. On to `CN1CCN(C(=O)c2ccc3cc(Oc4ccc(C(F)(F)F)cn4)ccc3n2)CC1=O` [Example 450, 1-methyl-4-[(6-{[5-(trifluoromethyl)pyridin-2-yl]oxy}quinolin-2-yl)carbonyl]piperazin-2-one], for which the IC50 under setting [1] was 3.58 µM. Still for that read-out and setting: the same measure for `O=C(c1ccc2cc(Oc3ccc(C(F)(F)F)cn3)ccc2n1)N1CCN(c2ccccc2)CC1` [Example 262, (4-phenylpiperazin-1-yl)(6-{[5-(trifluoromethyl)pyridin-2-yl]oxy}quinolin-2-yl)methanone]: 2.09 µM; for `N#Cc1ccc(Oc2ccc3nc(C(=O)N4CCCCCC4)ccc3c2)cc1` [Example 106, 4-{[2-(azepan-1-ylcarbonyl)quinolin-6-yl]oxy}benzonitrile]: 2.42 µM. `O=C(c1ccc2cc(Oc3ncc(C(F)(F)F)cc3F)ccc2n1)N1CCNCC1` [Example 250, (6-{[3-fluoro-5-(trifluoromethyl)pyridin-2-yl]oxy}quinolin-2-yl)(piperazin-1-yl)methanone]: the IC50 under setting [2] is 1.39 µM.
